Data on five compounds can be found in patent US20230049952A1, “METHODS AND COMPOUNDS FOR RESTORING MUTANT P53 FUNCTION” (PMV Pharmaceuticals, Inc., priority 2020, published 2023).

The target of data set [1] is T1, MATE1 (Homo sapiens, UniProt Q96FL8). Briefly: in vitro. The conditions noted are these: HEK293 cells transfected with MATE1, probe metformin (50 µM).
In data set [2] the target is T1, MATE1. Briefly: uptake transporter inhibition assessment, transfected HEK293. To be noted: inhibitor 100 μM.
The target in data set [3] is T2, P-GP (Homo sapiens, UniProt P08183). The conditions noted are these: Caco-2, 120 min, 10 µM, pH 7.4.
T2 sequence (P08183 whole entry): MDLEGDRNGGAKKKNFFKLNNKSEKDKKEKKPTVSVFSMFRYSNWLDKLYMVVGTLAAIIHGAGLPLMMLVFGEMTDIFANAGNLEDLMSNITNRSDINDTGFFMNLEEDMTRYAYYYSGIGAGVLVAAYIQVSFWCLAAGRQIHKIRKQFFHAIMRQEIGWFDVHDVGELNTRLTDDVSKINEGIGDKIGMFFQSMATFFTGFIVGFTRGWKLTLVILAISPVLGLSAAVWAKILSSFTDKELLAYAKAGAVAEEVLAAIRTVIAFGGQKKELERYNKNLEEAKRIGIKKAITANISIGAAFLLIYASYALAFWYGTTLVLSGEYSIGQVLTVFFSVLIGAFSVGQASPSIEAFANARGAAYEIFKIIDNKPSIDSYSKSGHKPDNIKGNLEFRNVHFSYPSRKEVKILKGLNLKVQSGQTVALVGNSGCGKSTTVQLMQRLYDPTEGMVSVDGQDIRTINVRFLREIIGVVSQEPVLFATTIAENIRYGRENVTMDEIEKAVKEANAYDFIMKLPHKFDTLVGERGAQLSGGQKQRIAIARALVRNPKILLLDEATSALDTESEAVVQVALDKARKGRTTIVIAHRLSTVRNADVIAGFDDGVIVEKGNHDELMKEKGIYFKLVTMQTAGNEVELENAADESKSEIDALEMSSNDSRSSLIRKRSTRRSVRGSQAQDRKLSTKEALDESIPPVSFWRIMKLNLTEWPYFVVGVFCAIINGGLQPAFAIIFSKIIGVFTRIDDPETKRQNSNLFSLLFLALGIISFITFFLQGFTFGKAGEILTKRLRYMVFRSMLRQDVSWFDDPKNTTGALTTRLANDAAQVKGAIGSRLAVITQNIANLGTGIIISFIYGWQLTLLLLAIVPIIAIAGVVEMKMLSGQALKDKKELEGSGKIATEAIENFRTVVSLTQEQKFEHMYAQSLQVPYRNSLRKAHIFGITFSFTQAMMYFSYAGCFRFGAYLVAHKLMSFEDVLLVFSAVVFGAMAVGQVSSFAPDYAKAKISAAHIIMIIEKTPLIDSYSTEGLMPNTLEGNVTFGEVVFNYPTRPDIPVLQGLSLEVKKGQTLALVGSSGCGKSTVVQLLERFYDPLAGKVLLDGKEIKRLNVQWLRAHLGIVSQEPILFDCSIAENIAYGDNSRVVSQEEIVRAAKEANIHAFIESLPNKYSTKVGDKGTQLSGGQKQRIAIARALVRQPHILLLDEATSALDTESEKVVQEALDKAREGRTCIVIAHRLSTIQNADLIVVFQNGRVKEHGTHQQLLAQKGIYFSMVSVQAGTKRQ
Data set [4] concerns the target T2, P-GP. Kind of data set: in vitro. To be noted: Caco-2, pH 7.4.
Data set [5] addresses T2, P-GP. Briefly: in vitro. The conditions noted are these: dog, MDCK-MDR1, pH 7.4.
Data set [6] has as its target T2, P-GP. Kind of data set: in vitro.
The nature of the next data set: in vitro. To be noted: human, Caco-2.
Data set [7] concerns P-gp. Kind of data set: in vitro. The conditions noted are these: human, Caco-2, pH 7.4.
For a further data set, the system named is P-gp (MDR1). Kind of data set: in vitro. To be noted: dog, MDCK-MDR1.
In data set [8] the test system is P-gp. Kind of data set: in vitro. The conditions noted are these: dog, MDCK-MDR1, pH 7.4.
Data set [9] deals with T2, P-GP. Briefly: P-GP substrate assessment, Caco-2 monolayers.
For data set [10], the target named is T2, P-GP. Briefly: P-GP substrate assessment, MDR1-MDCK monolayers. The conditions noted are these: for Recovery (%): B-to-A.
The target in data set [11] is T3, CYP2D6 (Homo sapiens, UniProt P10635). The conditions noted are these: both, microsomes, 30 min, 0.123 µM, pH 7.4.
T3 sequence (P10635 whole entry): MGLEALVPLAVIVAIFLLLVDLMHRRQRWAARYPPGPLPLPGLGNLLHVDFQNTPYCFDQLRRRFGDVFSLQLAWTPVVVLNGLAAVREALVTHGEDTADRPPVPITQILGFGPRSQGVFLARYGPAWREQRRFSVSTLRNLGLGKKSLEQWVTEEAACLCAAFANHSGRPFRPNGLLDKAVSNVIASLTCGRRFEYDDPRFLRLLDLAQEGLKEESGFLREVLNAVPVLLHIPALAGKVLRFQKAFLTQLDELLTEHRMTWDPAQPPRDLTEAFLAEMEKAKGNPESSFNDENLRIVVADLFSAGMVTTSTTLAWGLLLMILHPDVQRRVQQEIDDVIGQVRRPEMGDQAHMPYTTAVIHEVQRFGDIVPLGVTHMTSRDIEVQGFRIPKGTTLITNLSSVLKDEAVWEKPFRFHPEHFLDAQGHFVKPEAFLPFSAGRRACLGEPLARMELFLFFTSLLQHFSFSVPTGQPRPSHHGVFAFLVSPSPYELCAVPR
In data set [12] the target is T3, CYP2D6. Kind of data set: in vitro. The conditions noted are these: both, microsomes, pH 7.4, % of Control Enzyme Activity.
Data set [13] addresses T4, OAT3 (Homo sapiens, UniProt Q8TCC7). Briefly: in vitro. The conditions noted are these: HEK293 cells transfected with OAT3, probe furosemide (5 µM).
Data set [14] addresses T4, OAT3. Briefly: uptake transporter inhibition assessment, transfected HEK293. The conditions noted are these: inhibitor 100 μM.
In data set [15] the target is T5, MATE2K (Homo sapiens, UniProt Q86VL8). Kind of data set: in vitro. To be noted: HEK293 cells transfected with MATE2K, probe metformin (50 µM).
T5 sequence (Q86VL8 1-566 isoform Q86VL8-3): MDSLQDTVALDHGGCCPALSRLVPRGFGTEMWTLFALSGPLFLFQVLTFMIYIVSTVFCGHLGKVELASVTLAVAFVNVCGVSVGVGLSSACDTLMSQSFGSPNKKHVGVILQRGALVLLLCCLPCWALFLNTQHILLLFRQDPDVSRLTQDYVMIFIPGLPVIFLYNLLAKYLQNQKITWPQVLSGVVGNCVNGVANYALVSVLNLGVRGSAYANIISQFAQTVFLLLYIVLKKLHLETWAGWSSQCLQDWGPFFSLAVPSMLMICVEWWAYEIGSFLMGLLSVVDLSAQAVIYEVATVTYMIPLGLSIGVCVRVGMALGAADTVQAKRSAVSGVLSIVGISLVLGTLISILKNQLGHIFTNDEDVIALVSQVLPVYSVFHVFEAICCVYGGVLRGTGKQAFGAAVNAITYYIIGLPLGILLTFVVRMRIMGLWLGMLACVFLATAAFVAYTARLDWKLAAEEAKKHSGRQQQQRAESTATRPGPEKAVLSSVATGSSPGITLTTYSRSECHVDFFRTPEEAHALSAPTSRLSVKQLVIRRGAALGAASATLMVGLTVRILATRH
For data set [16], the target named is T5, MATE2K. Briefly: uptake transporter inhibition assessment, transfected HEK293. The conditions noted are these: inhibitor 1 μM.

Where two headings read alike, the source gives them in different places.

T4 sequence (Q8TCC7 whole entry): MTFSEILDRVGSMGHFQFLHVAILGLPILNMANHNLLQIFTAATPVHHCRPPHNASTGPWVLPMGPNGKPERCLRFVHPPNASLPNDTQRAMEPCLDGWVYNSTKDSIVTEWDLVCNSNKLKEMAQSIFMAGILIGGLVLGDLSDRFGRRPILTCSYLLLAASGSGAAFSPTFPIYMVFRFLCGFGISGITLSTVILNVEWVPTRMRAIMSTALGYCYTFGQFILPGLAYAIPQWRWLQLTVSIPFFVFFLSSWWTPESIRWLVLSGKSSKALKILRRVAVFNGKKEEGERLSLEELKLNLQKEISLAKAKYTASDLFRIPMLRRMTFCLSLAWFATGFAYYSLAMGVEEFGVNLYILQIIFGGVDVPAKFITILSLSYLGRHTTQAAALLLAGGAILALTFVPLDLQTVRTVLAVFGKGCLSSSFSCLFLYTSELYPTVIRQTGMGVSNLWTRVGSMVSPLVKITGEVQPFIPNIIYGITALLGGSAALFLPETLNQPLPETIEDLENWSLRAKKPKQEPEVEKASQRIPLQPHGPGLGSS
T1 sequence (Q96FL8 whole entry): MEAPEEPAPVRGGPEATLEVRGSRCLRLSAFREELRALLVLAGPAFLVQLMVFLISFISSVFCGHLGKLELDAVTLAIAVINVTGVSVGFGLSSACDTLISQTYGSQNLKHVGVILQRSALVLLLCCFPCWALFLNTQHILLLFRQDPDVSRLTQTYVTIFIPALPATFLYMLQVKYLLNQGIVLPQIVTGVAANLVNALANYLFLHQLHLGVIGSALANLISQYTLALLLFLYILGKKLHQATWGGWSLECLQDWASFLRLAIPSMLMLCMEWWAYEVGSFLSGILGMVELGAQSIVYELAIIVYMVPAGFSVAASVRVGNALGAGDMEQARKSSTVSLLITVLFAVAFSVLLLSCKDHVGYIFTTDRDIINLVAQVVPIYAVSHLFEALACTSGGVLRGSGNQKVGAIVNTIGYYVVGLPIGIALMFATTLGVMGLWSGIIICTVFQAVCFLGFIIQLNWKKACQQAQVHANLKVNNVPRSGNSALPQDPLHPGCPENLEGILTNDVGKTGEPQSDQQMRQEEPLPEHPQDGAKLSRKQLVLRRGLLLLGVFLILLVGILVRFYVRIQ

For the compound `CN/C(=N/CCSCc1nc[nH]c1C)NC#N` [Cimetidine], testing at 100 µM against MATE1 [1] gave an inhibition of 99.2%. The “Inhibition Potential Classification” value on MATE1 [2] is listed as “Positive (Percent inhibition≥50%: Positive)”.

Regarding `C[C@H]1O[C@@H](O[C@H]2[C@@H](O)C[C@H](O[C@H]3[C@@H](O)C[C@H](O[C@H]4CC[C@@]5(C)[C@H](CC[C@@H]6[C@@H]5C[C@@H](O)[C@]5(C)[C@@H](C7=CC(=O)OC7)CC[C@]65O)C4)O[C@@H]3C)O[C@@H]2C)C[C@H](O)[C@@H]1O` [Digoxin, digoxin], the “Recovery (%)” value amounted to 79.9% on P-GP [3]; 72.2% at P-GP [9] (Digoxin + 1 μM Valspodar, A-to-B); 95.3% at P-GP [9] (Digoxin + 1 μM Valspodar, B-to-A); 79.9% at P-GP [9] (Digoxin, B-to-A); 85.9% on P-GP [10] (Digoxin + 1 μM Valspodar); 74.9% at P-GP [10] (Digoxin). Also, the Papp A→B (usually the apparent permeability from the apical to the basolateral side of a cell layer) at 120 min is 0.344 ×10⁻⁶ cm/s at P-GP [4], 0.403 ×10⁻⁶ cm/s in the data set on P-gp [7] and 0.0792 ×10⁻⁶ cm/s in the data set with P-gp [8]. The Papp B→A (in general, how fast a substance crosses the layer from the basolateral side) at 120 min on P-GP [4] is 10.5 ×10⁻⁶ cm/s; on P-GP [5], 10.4 ×10⁻⁶ cm/s; in the data set with P-gp [7] it was 8.93 ×10⁻⁶ cm/s. Moreover, the recovery at 120 min at P-GP [4] was 73.4%; on P-GP [5], 77.6%. Moreover, the recovery at 120 min, 10 µM on P-GP [6] (Caco-2, pH 7.4, % Recovery) was 95.4%; on P-GP [6] (Caco-2, pH 7.4, Recovery (%)), 73.4%. The Papp B→A at 120 min, 10 μM was determined as 10.9 ×10⁻⁶ cm/s at P-GP [6] (Caco-2, pH 7.4, Papp AVG) and 10.5 ×10⁻⁶ cm/s on P-GP [6] (Caco-2, pH 7.4, Papp R2). For the same compound, the Papp A→B at 120 min, 10 μM stood at 0.344 ×10⁻⁶ cm/s at P-GP [6] (Caco-2, pH 7.4, Papp R1) and 0.645 ×10⁻⁶ cm/s at P-GP [6] (Caco-2, pH 7.4, Papp R2). Besides, in the data set “in vitro”, the apparent permeability from apical to basolateral (Papp A→B) came to 0.511 ×10⁻⁶ cm/s. Moreover, the basolateral-to-apical permeability (Papp B→A) with P-gp (MDR1) is 11 ×10⁻⁶ cm/s. Further, the “P-gp Substrate Classification” value at P-GP [9] (Digoxin) and on P-GP [10] (Digoxin) was “Positive” each time. In addition, the “Papp AVG” value on P-GP [9] (Digoxin, A-to-B) was 0.494 10^−6 cm/s; on P-GP [9] (Digoxin, B-to-A), 10.9 10^−6 cm/s; at P-GP [10] (Digoxin, A-to-B), 0.0321 10^−6 cm/s. For the same compound, the “Papp R1” value on P-GP [9] (Digoxin, B-to-A) is 11.4 10^−6 cm/s; on P-GP [10] (Digoxin, A-to-B) it was 0.0436 10^−6 cm/s.

With `Fc1ccc([C@@H]2CCNC[C@H]2COc2ccc3c(c2)OCO3)cc1` [Paroxetine], the “% of Control Enzyme Activity” value on CYP2D6 [11] is recorded as 79.1%. Besides, the activity at 30 min, 0.123 µM on CYP2D6 [12] was determined as 95.8%.

As to `CCCN(CCC)S(=O)(=O)c1ccc(C(=O)O)cc1` [Probenecid], 100 µM produced 72% inhibition against OAT3 [13]. Also, the “Inhibition Potential Classification” value on OAT3 [14] is “Positive (Percent inhibition≥50%: Positive)”.

For the compound `CCc1nc(N)nc(N)c1-c1ccc(Cl)cc1` [Pyrimethamine], the inhibition (usually the share of the control response that was lost under treatment) at 1 µM at MATE2K [15] was 93.3%. Moreover, the “Inhibition Potential Classification” value on MATE2K [16] was “Positive (Percent inhibition≥50%: Positive)”.
